Data from patent publication US20200247897A1, “THERAPEUTIC ANTIBODIES BASED ON MUTATED IGG HEXAMERS” (GENMAB B.V., priority 2017, published 2020).
“Also recorded” adds a separate entry of the source.

Legend:
[1] = system: BxPC-3 pancreatic cancer cells; assay: 3-days CellTiter-Glo viability assay, BxPC-3
[2] = system: PANC-1 pancreatic cancer cells; assay: 3-days CellTiter-Glo viability assay, PANC-1; assay type: cell-based, human; conditions: 10 μg/mL
[3] = system: SK-MES-1 human lung cancer cells; assay: Subcutaneous SK-MES-1 lung cancer xenograft model; conditions: Example 33: 0.5, 2, 10 mg/kg i.v., twice Q7D
Procedure: The cells were maintained in vitro as a monolayer culture in MEM medium supplemented with 10% fetal bovine serum and 0.01 mM NEAA at 37° C. in an atmosphere of 5% CO2 in air. At day 0, adherent cells in an exponential growth phase were harvested by trypsin-EDTA treatment. 5×10^6 cells were injected in a volume of 100 μL PBS into the flank of 6-8 weeks old female BALB/c mice (Shanghai Laboratory Animal Center). Mouse handling and tumor volume measurements were performed as described in Example 30. Twenty-one days after tumor inoculation, the mean tumor size reached 161 mm^3 and mice were assigned into groups using randomized block design and treatments were started. Mice were treated twice according to a Q7D regimen by i.v. injection of 200 μg (10 mg/kg), 40 μg (2 mg/kg) or 10 μg (0.5 mg/kg) antibody in 10 μL PBS per g body weight. Mice in the control group were treated in parallel with 200 μg (10 mg/kg) IgG1-b12. After tumor inoculation, welfare of the animals was checked daily and tumor volumes were measured twice weekly.
Cell culturing, tumor cell inoculation, mice handling, tumor outgrowth measurements and endpoint determination were performed as described in Example 33.

[4] = system: COLO 205 human colon cancer cells; assay: 3-days CellTiter-Glo viability assay, COLO 205; assay type: cell-based
Procedure: COLO 205 cells were harvested by pooling the culture supernatant containing non-adherent cells and trypsinized adherent cells. HCT 116 cells were harvested by trypsinization. […] In samples that were treated with a combination of two antibodies, the total antibody concentration in the assay was the same as in the samples that were treated with single antibodies. […] From the kit, 20 μL luciferin solution reagent was added per well and mixed by shaking the plate for 2 minutes at 500 rpm. Next, plates were incubated for 1.5 hours at 37° C. 100 μL supernatant was transferred to a white OptiPlate-96 (Perkin Elmer, Cat nr 6005299) and luminescence was measured on an EnVision Multilabel Reader (PerkinElmer). Data were analyzed and plotted using non-linear regression (sigmoidal dose-response with variable slope) using GraphPad Prism software.
The antibodies with and without the E430G mutation were tested as single agent and as combinations of the two non-crossblocking antibodies. COLO 205 cells were harvested as described in Example 8.

[5] = system: SW480 human colon cancer cells; assay: Subcutaneous SW480 colon cancer xenograft model; assay type: in vivo, NOD/SCID mice; conditions: 0.5, 2, 10 mg/kg i.v., twice Q7D
Procedure: 1×10^7 cells were injected in a volume of 200 μL PBS with Matrigel (1:1) into the flank of 6-8 weeks old female NOD/SCID mice (Beijing HFK Bioscience).

[6] = system: HCT-15 colon cancer cells; assay: 3-days CellTiter-Glo viability assay, HCT-15; conditions: 4 μg/mL
[7] = system: HCT-15 human colon cancer cells; assay: Subcutaneous HCT-15 colon cancer xenograft model; assay type: in vivo, BALB/c nude mice; conditions: Example 30: 0.5, 2, 10 mg/kg i.v., twice Q7D
Procedure: (§1) The care and use of animals during the study were conducted in accordance with the regulations of the Association for Assessment and Accreditation of Laboratory Animal Care (AAALAC). Tumor volumes were measured twice weekly in two dimensions using a caliper, and the volume was expressed in mm^3 using the formula: V=0.5 a×b2 where a and b are the long and short diameters of the tumor, respectively.
as §1, with “a×b^2” for “a×b2”

[8] = system: COLO 205 human colon cancer cells; assay: Subcutaneous COLO 205 colon cancer xenograft model; assay type: in vivo, SCID mice
Procedure: The in vivo anti-tumor efficacy of different anti-DR5 antibodies and the combination of DR5-01+DR5-05 antibodies with hexamerization enhancing mutation was evaluated in a subcutaneous model with COLO 205 human colon cancer cells. At day 0, cells were harvested by pooling the culture supernatant containing non-adherent cells and trypsinized adherent cells. 3×10^6 cells were injected in a volume of 200 μL PBS into the flank of 6-11 weeks old female SCID mice (C.B-17/IcrHan®Hsd-Prkdc^scid; Harlan). All experiments and animal handlings were approved by the local authorities, and were conducted according to all applicable international, national and local laws and guidelines. Tumor development was monitored at least twice per week by caliper (PLEXX) measurement as 0.52×(length)×(width)^2. […] Mice were treated by intraperitoneal (i.p.) injection of 100 μg antibody in 200 μL PBS on day 6 and 13 (5 mg/kg per dose). To check for correct antibody administration, blood samples were obtained for IgG serum determination three days after the first dose. […] Tumors were measured until 16 weeks after tumor inoculation.
Mice were treated by intravenous (i.v.) injection of 40 μg (2 mg/kg), 10 μg (0.5 mg/kg) or 2 μg (0.1 mg/kg) antibody in 100 μL PBS on day 10. Mice in the control group were treated with 40 μg (2 mg/kg) IgG1-b12. Tumors were measured until 17 weeks after tumor inoculation.
At day 9, the average tumor volume was measured and the mice were sorted into groups with equal tumor size variance. Mice were treated by intravenous (i.v.) injection of 10 μg (0.5 mg/kg) antibody in 200 μL PBS on day 9. Mice in the control group were treated with 10 μg (0.5 mg/kg) IgG1-b12.

[9] = 10 μg/mL, F(ab')2 goat-anti-human IgG, listed as IgG1-DR5-CONA

“IgG1-CONA: reference anti-DR5 antibody based on U.S. Pat. No. 7,521,048 B2 and WO2010/138725” was tested, and the “effect of secondary crosslinker on killing of BxPC-3 cells” value ([1]; 4 μg/mL) was “enhanced by the presence of a secondary crosslinker”, the “killing of BxPC-3 cells in absence of Fc crosslinker” value ([1]; 10 μg/mL) was “did not induce target cell killing in the absence of an Fc crosslinker” and the “killing of BxPC-3 cells in presence of Fc crosslinker” value [1, 9] was “Fc crosslinking induced killing; also recorded: only induced killing in the presence of Fc crosslinker”. For the same substance, the “killing of PANC-1 cells in absence of Fc crosslinker” value [2] was “did not induce target cell killing in the absence of an Fc crosslinker”, the “tumor growth (mean tumor volume) versus IgG1-b12” value [3] was “only had a significant effect compared to IgG1-b12 at 10 mg/kg (p<0.01) and 2 mg/kg (p<0.05) but not at 0.5 mg/kg” and the “killing of COLO 205 cells in presence of Fc crosslinker” value [4, 9] was “Fc crosslinking induced killing; also recorded: only induced killing in the presence of Fc crosslinker”. For the same substance, the “killing of COLO 205 cells in absence of Fc crosslinker” value ([4]; 10 μg/mL, adherent cells) was “did not induce target cell killing in the absence of an Fc crosslinker”, the “killing of adherent (attached) COLO 205 cells (% viable cells)” value ([4]; cells adhered overnight before adding antibody, dilution series) was “not able to kill attached COLO 205 colon cancer cells” and the “tumor growth (mean tumor volume) versus IgG1-b12” value [5] was “only better than IgG1-b12 at the highest doses (10 mg/kg and 2 mg/kg p<0.01), but not at 0.5 mg/kg”. For the same substance, the “effect of secondary crosslinker on killing of HCT15 cells” value [6] was “enhanced by the presence of a secondary crosslinker”, the “tumor growth (mean tumor volume)” value [7] was “did not” and the “tumor growth (mean tumor volume)” value ([8]; Example 26: 5 mg/kg i.p. on day 6 and 13) was “strongly inhibited tumor growth compared to IgG1-b12, but did not result in complete tumor abrogation”. The “tumor growth progression versus IgG1-b12 (Kaplan-Meier, cutoff >500 mm^3)” value ([8]; Example 27: 0.5 mg/kg and 2 mg/kg) was “significantly inhibited tumor growth progression compared to the negative control antibody IgG1-b12”, the “tumor regression (mean tumor volume)” value ([8]; Example 27: single dose 0.5 mg/kg i.v. day 10) was “regression was incomplete with recurring tumor outgrowth in all mice” and the “tumor regression (mean tumor volume)” value ([8]; Example 27: single dose 2 mg/kg i.v. day 10) was “almost all (7/8) mice”.
